# pIC50: −log10 of the molar value.
# Target: USP7 (Homo sapiens (Human), UniProt Q93009)
# Assay: USP7 fluorescence polarisation (FP) biochemical assay, ubiquitin-Lys-TAMRA substrate
# Conditions: not given
# Summary of the method: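 Full-length His6-USP7 (2.5 nM) incubated ± inhibitor (8-point dilutions, 200 to 0.1 μM before addition) in 50 mM HEPES pH 7.2, 150 mM NaCl, 0.5 mM EDTA, 5 mM DTT, 0.05% BSA, 0.05% CHAPS. Ubiquitin-Lys-TAMRA cleavage followed by FP (ex 530/em 575 nm) every 15 min for 1.5 h; normalised to no-compound control.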
# Sequence of USP7 (Q93009 whole entry): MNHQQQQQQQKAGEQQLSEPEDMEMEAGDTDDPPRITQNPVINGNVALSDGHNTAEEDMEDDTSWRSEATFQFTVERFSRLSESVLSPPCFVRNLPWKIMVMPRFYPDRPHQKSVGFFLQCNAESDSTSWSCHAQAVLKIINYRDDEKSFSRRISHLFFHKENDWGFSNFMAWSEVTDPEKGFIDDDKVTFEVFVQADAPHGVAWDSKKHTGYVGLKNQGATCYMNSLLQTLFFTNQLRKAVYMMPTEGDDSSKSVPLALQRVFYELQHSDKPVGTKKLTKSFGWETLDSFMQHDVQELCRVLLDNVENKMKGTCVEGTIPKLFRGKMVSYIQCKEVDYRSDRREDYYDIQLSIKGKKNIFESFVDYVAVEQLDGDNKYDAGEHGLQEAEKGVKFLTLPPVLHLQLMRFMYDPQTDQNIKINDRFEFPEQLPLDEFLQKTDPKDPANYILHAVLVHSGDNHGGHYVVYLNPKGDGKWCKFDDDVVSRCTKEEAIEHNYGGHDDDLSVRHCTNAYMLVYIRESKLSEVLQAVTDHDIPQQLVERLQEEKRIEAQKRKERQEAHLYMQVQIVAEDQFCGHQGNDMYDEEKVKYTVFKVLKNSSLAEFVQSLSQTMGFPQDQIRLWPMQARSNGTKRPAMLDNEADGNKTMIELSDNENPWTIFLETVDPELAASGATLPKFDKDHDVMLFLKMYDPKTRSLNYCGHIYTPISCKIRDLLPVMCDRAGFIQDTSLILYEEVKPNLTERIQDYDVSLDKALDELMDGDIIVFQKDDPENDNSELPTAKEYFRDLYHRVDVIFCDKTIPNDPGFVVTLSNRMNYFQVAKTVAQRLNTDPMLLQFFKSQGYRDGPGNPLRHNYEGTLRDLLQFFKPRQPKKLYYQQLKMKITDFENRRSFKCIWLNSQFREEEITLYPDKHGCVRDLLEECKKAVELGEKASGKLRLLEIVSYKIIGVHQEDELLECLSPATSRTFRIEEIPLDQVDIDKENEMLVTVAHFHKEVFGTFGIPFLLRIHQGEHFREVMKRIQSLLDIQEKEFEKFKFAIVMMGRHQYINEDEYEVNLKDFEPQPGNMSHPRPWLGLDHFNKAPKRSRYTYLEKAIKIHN
row,pIC50,SMILES
1,3.70 to 6.00,"C[C@H](CC(=O)N1CCC(O)(Cn2cnc(OCCN(C)C)cc2=O)CC1)c1ccccc1 [Example 10, (R)-6-(2-(Dimethylamino)ethoxy)-3-((4-hydroxy-1-(3-phenylbutanoyl)piperidin-4-yl)methyl)pyrimidin-4(3H)-one]"

# Same assay, conditions: Table 4, biochemical assay; average of at least duplicate experiments; read-out: USP7 IC50
row,pIC50,SMILES
1,> 6.60,"C[C@H](N)c1ccc(-c2c3ncn(CC4(O)CCN(C(=O)C[C@H](c5ccccc5)C(F)(F)F)CC4)c(=O)c3nn2C)cc1 [Example 76, 3-(4-((S)-1-Aminoethyl)phenyl)-6-((4-hydroxy-1-((R)-4,4,4-trifluoro-3-phenylbutanoyl)piperidin-4-yl)methyl)-2-methyl-2H-pyrazolo[4,3-d]pyrimidin-7(6H)-one]"
2,3.70 to 6.00,"C[C@H](CC(=O)N1CCC(O)(Cn2cnc(NCCNc3nccc(C(F)(F)F)n3)cc2=O)CC1)c1ccccc1 [Example 145, (R)-3-((4-hydroxy-1-(3-phenylbutanoyl)piperidin-4-yl)methyl)-6-((2-((4-(trifluoromethyl)pyrimidin-2-yl)amino)ethyl)amino)pyrimidin-4(3H)-one]"
3,3.70 to 6.00,"C[C@H](CC(=O)N1CCC(O)(Cn2cnc(N3CCN(Cc4cccnc4)CC3)cc2=O)CC1)c1ccccc1 [Example 158, (R)-3-((4-hydroxy-1-(3-phenylbutanoyl)piperidin-4-yl)methyl)-6-(4-(pyridin-3-ylmethyl)piperazin-1-yl)pyrimidin-4(3H)-one]"
4,3.70 to 6.00,"C[C@H](CC(=O)N1CCC(O)(Cn2cnc(N3CC4(CCCO4)C3)cc2=O)CC1)c1ccccc1 [Example 169, (R)-3-((4-hydroxy-1-(3-phenylbutanoyl)piperidin-4-yl)methyl)-6-(5-oxa-2-azaspiro[3.4]octan-2-yl)pyrimidin-4(3H)-one]"
5,6.00 to 6.60,"C[C@H](CC(=O)N1CCC(O)(Cn2cnc(NC[C@H]3CCCN3C)cc2=O)CC1)c1ccccc1 [Example 65, 3-((4-Hydroxy-1-((R)-3-phenylbutanoyl)piperidin-4-yl)methyl)-6-((((R)-1-methylpyrrolidin-2-yl)methyl)amino)pyrimidin-4(3H)-one, Formic Acid]"
6,3.70 to 6.00,"C[C@H](CC(=O)N1CCC(O)(Cn2cnc(N3CC(C(=O)NCC4CC4)C3)cc2=O)CC1)c1ccccc1 [Example 164, (R)-N-(cyclopropylmethyl)-1-(1-((4-hydroxy-1-(3-phenylbutanoyl)piperidin-4-yl)methyl)-6-oxo-1,6-dihydropyrimidin-4-yl)azetidine-3-carboxamide]"
7,> 6.60,"CC1(C(=O)N2CCC(O)(Cn3cnc4c(cc(Cl)n4-c4ccc(C5CC5)cc4)c3=O)CC2)CC1 [Example 220, 6-Chloro-7-(4-cyclopropylphenyl)-3-((4-hydroxy-1-(1-methylcyclopropanecarbonyl)piperidin-4-yl)methyl)-3H-pyrrolo[2,3-d]pyrimidin-4(7H)-one]"
8,> 6.60,"C[C@H](CC(=O)N1CCC(O)(Cn2cnc3c(ncn3-c3ccc(CN)cc3)c2=O)CC1)c1ccccc1 [Example 68, (R)-9-(4-(Aminomethyl)phenyl)-1-((4-hydroxy-1-(3-phenylbutanoyl)piperidin-4-yl)methyl)-1H-purin-6(9H)-one]"
9,3.70 to 6.00,"C[C@H](CC(=O)N1CCC(O)(Cc2cnc3c(-c4ccccc4)cccn3c2=O)CC1)c1ccccc1 [Example 19, (R)-3-((4-Hydroxy-1-(3-phenylbutanoyl)piperidin-4-yl)methyl)-9-phenyl-4H-pyrido[1,2-a]pyrimidin-4-one]"
10,> 6.60,"CC1(C(=O)N2CCC(O)(Cn3cnc4c(cc(C#N)n4-c4ccccc4)c3=O)CC2)CC1 [Example 234, 3-((4-Hydroxy-1-(1-methylcyclopropanecarbonyl)piperidin-4-yl)methyl)-4-oxo-7-phenyl-4,7-dihydro-3H-pyrrolo[2,3-d]pyrimidine-6-carbonitrile]"
11,6.00 to 6.60,"CC1(C(=O)N2CCC(O)(Cn3cnc4c(cc(Cl)n4-c4cccc(Br)c4)c3=O)CC2)CC1 [Example 214, 7-(3-Bromophenyl)-6-chloro-3-((4-hydroxy-1-(1-methylcyclopropanecarbonyl)piperidin-4-yl)methyl)-3H-pyrrolo[2,3-d]pyrimidin-4(7H)-one]"
12,6.00 to 6.60,"C[C@H](CC(=O)N1CCC(O)(Cn2cnc(NC3CCCC[C@H]3N)cc2=O)CC1)c1ccccc1 (mixture of isomers) [Example 63, rac-6-(((±-trans-1,2)-2-Aminocyclohexyl)amino)-3-((4-hydroxy-1-((R)-3-phenylbutanoyl)piperidin-4-yl)methyl)pyrimidin-4(3H)-one, Formic Acid]"
13,3.70 to 6.00,"C[C@H](CC(=O)N1CCC(O)(Cn2cnc(N3CCOC(C)(C(=O)N(C)C)C3)cc2=O)CC1)c1ccccc1 (stereo partly drawn) [Example 148, 4-(1-((4-hydroxy-1-((R)-3-phenylbutanoyl)piperidin-4-yl)methyl)-6-oxo-1,6-dihydropyrimidin-4-yl)-N,N,2-trimethylmorpholine-2-carboxamide]"
14,> 6.60,"CC1(C(=O)N2CCC(O)(Cn3cnc4c(cc(Cl)n4-c4cccc(-n5cc(F)cn5)c4)c3=O)CC2)CC1 [Example 227, 6-Chloro-7-(3-(4-fluoro-1H-pyrazol-1-yl)phenyl)-3-((4-hydroxy-1-(1-methylcyclopropanecarbonyl)piperidin-4-yl)methyl)-3H-pyrrolo[2,3-d]pyrimidin-4(7H)-one]"
15,> 6.60,"CC1(C(=O)N2CCC(O)(Cn3cnc4c(cc(Br)n4-c4ccccc4)c3=O)CC2)CC1 [Example 223, 6-Bromo-3-((4-hydroxy-1-(1-methylcyclopropanecarbonyl)piperidin-4-yl)methyl)-7-phenyl-3H-pyrrolo[2,3-d]pyrimidin-4(7H)-one]"
16,3.70 to 6.00,"COc1cc(=O)n(CC2(O)CCN(C(=O)C[C@@H](C)c3ccccc3)CC2)cn1 [Example 9, (R)-3-((4-Hydroxy-1-(3-phenylbutanoyl)piperidin-4-yl)methyl)-6-methoxypyrimidin-4(3H)-one]"
17,3.70 to 6.00,"C[C@H](CC(=O)N1CCC(O)(Cc2cnc3ccccn3c2=O)CC1)c1ccccc1 [Example 18, (R)-3-((4-Hydroxy-1-(3-phenylbutanoyl)piperidin-4-yl)methyl)-4H-pyrido[1,2-a]pyrimidin-4-one]"
18,> 6.60,"Cc1nc2c(=O)n(CC3(O)CCN(C(=O)C[C@@H](C)c4ccccc4)CC3)cnc2n1-c1ccccc1 [Example 188, (R)-1-((4-Hydroxy-1-(3-phenylbutanoyl)piperidin-4-yl)methyl)-8-methyl-9-phenyl-1H-purin-6(9H)-one]"
19,3.70 to 6.00,"CC1(C(=O)N2CCC(O)(Cn3cnc4[nH]c(Cl)cc4c3=O)CC2)CC1 [Example 199, 6-Chloro-3-((4-hydroxy-1-(1-methylcyclopropanecarbonyl)piperidin-4-yl)methyl)-3H-pyrrolo[2,3d]pyrimidin-4(7H)-one]"
20,> 6.60,"Cn1cc(-c2cccc(-n3c(Cl)cc4c(=O)n(CC5(O)CCN(C(=O)c6cnc(C7CC7)o6)CC5)cnc43)c2)cn1 [Example 211, 6-Chloro-3-((1-(2-cyclopropyloxazole-5-carbonyl)-4-hydroxypiperidin-4-yl)methyl)-7-(3-(1-methyl-1H-pyrazol-4-yl)phenyl)-3H-pyrrolo[2,3-d]pyrimidin-4(7H)-one]"
21,6.00 to 6.60,"O=C(CC(C1CC1)C1CC1)N1CCC(O)(Cn2cnc(NCCN3CCCC3)cc2=O)CC1 [Example 133, 3-((1-(3,3-Dicyclopropylpropanoyl)-4-hydroxypiperidin-4-yl)methyl)-6-((2-(pyrrolidin-1-yl)ethyl)amino)pyrimidin-4(3H)-one]"
22,> 6.60,"CC1(C(=O)N2CCC(O)(Cn3cnc4c(cc(Cl)n4-c4ccc(CN)cc4)c3=O)CC2)CC1 [Example 241, 7-(4-(Aminomethyl)phenyl)-6-chloro-3-((4-hydroxy-1-(1-methylcyclopropane-1-carbonyl)piperidin-4-yl)methyl)-3,7-dihydro-4H-pyrrolo[2,3-d]pyrimidin-4-one]"
23,3.70 to 6.00,"C[C@H](CC(=O)N1CCC(O)(Cn2cnc3c(ncn3C)c2=O)CC1)c1ccccc1 [Example 15, (R)-1-((4-Hydroxy-1-(3-phenylbutanoyl)piperidin-4-yl)methyl)-9-methyl-1H-purin-6(9H)-one]"
24,3.70 to 6.00,"Cc1nc2c(=O)n(CC3(O)CCN(C(=O)CC(C4CC4)C4CC4)CC3)cnc2n1-c1ccccc1 [Example 190, 1-((1-(3,3-Dicyclopropylpropanoyl)-4-hydroxypiperidin-4-yl)methyl)-8-methyl-9-phenyl-1H-purin-6(9H)-one]"
25,> 6.60,"C[C@H](CC(=O)N1CCC(O)(Cn2cnc(N3CCC[C@H](N(C)C)C3)cc2=O)CC1)c1ccccc1 [Example 50, 6-((S)-3-(Dimethylamino)piperidin-1-yl)-3-((4-hydroxy-1-((R)-3-phenylbutanoyl)piperidin-4-yl)methyl)pyrimidin-4(3H)-one]"
26,3.70 to 6.00,"C[C@H](CC(=O)N1CCC(O)(Cn2cnc(N3CCC(C)(O)C3)cc2=O)CC1)c1ccccc1 (stereo partly drawn) [Example 150, 3-((4-hydroxy-1-((R)-3-phenylbutanoyl)piperidin-4-yl)methyl)-6-(3-hydroxy-3-methylpyrrolidin-1-yl)pyrimidin-4(3H)-one]"

row,SMILES,pIC50
1,"[2H]C1([2H])Oc2ccc(-n3c(Cl)cc4c(=O)n(CC5(O)CCN(C(=O)C6(C)CC6)CC5)cnc43)cc2O1 [Example 235, 7-(Benzo[d][1,3]dioxol-5-yl-2,2-d2)-6-chloro-3-((4-hydroxy-1-(1-methylcyclopropane-1-carbonyl)piperidin-4-yl)methyl)-3,7-dihydro-4H-pyrrolo[2,3-d]pyrimidin-4-one]",> 6.60

# Same assay, conditions: USP7 IC50, Table 4, biochemical assay; average of at least duplicate experiments
row,pIC50,SMILES
1,6.00 to 6.60,"C[C@H](CC(=O)N1CCC(O)(Cn2cnc(N3CC(N)C3)cc2=O)CC1)c1ccccc1 [Example 13, (R)-6-(3-Aminoazetidin-1-yl)-3-((4-hydroxy-1-(3-phenylbutanoyl)piperidin-4-yl)methyl)pyrimidin-4(3H)-one]"

# Reference: patent publication US10766903B2 (ALMAC DISCOVERY LIMITED, priority 2016, dated 2020)
